Results on 3 compounds are retold here after publication PMC3929239 (Bioorganic & medicinal chemistry letters, 2011).

One data set deals with CYP2D6 (Homo sapiens, UniProt P10635). The experiment in a line: Single point CYP450 inhibition test. Type of data set: in vitro ADME. The note with it: for inhibition at 10 µM: human, CYP2D6 % inhibition.
The test system of a further data set is 450 kinases. The note with it: 450 kinases profiled by KINOMEscan; cited from earlier work.
The next data set deals with U87-MG mouse xenograft. The note with it: cited from earlier work.
Another data set concerns the target mTOR (Homo sapiens, UniProt P42345). As to the kind of experiment: Ambit KINOMEscan. Type of data set: binding.
The target of a further data set is CYP3A4 (Homo sapiens, UniProt P08684). The experiment in a line: Single point CYP450 inhibition test. It counts as in vitro ADME.
For another data set, the target named is PI3K-C2β (Homo sapiens, UniProt O00750). The experiment in a line: Ambit KINOMEscan. It counts as binding.
Data set [1] concerns downstream targets of mTOR, S6K, and Akt. As to the kind of experiment: In vivo pharmacodynamic study. The note with it: liver and lung tissues, after 6h, 20 mg/kg.
For the next data set, the target named is P110γ (Homo sapiens, UniProt P48736). As to the kind of experiment: Ambit KINOMEscan. Type of data set: binding.
The target of a further data set is P110α/P85α (Homo sapiens, UniProt P42336). The experiment in a line: Ambit KINOMEscan. It counts as binding.
In a further data set the target is T1, P110δ/P85α (Homo sapiens, UniProt O00329).
T1 sequence (O00329 1-1044): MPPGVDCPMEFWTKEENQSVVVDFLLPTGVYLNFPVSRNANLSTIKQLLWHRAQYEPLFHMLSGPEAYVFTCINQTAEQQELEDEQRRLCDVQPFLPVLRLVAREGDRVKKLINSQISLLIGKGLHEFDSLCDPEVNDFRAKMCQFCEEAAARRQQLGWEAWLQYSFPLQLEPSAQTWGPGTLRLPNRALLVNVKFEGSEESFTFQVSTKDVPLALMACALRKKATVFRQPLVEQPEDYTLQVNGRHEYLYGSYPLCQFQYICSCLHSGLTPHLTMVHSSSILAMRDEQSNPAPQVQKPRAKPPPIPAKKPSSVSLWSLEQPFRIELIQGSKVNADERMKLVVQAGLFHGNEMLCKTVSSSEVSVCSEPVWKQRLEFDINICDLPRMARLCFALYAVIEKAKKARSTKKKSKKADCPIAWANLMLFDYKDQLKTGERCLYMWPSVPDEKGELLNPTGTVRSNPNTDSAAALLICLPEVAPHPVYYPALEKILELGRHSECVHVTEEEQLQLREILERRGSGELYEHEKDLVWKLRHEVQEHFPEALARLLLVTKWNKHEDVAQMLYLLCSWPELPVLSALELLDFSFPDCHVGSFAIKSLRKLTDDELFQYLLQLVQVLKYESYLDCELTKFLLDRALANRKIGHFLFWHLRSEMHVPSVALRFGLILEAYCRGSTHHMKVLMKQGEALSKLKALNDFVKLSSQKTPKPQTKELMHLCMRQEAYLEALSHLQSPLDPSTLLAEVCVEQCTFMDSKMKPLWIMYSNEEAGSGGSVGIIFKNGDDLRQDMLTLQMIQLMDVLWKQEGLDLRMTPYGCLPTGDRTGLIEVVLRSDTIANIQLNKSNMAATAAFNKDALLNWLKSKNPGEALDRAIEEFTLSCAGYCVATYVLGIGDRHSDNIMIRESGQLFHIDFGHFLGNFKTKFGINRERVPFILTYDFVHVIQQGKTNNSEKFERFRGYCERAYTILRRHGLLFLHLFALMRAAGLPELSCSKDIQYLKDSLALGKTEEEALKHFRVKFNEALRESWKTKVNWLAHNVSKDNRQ
As to the kind of experiment: Ambit KINOMEscan. It counts as binding.

Sequence of CYP2D6 (P10635 whole entry): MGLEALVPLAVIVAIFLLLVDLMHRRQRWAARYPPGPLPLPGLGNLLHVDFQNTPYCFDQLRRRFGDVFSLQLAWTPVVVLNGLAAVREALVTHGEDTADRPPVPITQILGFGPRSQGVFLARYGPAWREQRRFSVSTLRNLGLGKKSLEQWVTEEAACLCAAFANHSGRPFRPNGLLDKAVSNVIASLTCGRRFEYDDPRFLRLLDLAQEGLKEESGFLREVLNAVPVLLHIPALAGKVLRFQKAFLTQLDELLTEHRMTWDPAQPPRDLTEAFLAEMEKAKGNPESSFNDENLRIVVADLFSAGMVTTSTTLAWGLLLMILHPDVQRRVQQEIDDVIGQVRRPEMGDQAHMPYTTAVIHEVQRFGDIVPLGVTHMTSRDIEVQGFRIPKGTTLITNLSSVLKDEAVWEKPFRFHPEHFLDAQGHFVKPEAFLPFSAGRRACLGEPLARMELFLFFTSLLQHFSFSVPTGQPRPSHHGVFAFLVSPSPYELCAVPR
Sequence of CYP3A4 (P08684 whole entry): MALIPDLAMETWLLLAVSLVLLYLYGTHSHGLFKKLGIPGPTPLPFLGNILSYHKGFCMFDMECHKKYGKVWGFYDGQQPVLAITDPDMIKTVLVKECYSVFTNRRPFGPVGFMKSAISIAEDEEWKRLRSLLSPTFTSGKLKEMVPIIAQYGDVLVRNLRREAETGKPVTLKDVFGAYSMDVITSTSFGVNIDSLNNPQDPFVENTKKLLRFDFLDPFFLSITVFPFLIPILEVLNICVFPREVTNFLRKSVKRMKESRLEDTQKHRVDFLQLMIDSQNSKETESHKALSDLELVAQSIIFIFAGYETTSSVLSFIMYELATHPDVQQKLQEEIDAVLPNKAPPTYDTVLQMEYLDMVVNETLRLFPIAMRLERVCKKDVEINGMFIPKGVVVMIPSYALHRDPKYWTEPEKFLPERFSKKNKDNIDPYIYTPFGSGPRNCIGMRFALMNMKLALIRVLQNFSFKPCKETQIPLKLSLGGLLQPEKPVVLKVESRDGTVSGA
Sequence of P110α/P85α (P42336 whole entry): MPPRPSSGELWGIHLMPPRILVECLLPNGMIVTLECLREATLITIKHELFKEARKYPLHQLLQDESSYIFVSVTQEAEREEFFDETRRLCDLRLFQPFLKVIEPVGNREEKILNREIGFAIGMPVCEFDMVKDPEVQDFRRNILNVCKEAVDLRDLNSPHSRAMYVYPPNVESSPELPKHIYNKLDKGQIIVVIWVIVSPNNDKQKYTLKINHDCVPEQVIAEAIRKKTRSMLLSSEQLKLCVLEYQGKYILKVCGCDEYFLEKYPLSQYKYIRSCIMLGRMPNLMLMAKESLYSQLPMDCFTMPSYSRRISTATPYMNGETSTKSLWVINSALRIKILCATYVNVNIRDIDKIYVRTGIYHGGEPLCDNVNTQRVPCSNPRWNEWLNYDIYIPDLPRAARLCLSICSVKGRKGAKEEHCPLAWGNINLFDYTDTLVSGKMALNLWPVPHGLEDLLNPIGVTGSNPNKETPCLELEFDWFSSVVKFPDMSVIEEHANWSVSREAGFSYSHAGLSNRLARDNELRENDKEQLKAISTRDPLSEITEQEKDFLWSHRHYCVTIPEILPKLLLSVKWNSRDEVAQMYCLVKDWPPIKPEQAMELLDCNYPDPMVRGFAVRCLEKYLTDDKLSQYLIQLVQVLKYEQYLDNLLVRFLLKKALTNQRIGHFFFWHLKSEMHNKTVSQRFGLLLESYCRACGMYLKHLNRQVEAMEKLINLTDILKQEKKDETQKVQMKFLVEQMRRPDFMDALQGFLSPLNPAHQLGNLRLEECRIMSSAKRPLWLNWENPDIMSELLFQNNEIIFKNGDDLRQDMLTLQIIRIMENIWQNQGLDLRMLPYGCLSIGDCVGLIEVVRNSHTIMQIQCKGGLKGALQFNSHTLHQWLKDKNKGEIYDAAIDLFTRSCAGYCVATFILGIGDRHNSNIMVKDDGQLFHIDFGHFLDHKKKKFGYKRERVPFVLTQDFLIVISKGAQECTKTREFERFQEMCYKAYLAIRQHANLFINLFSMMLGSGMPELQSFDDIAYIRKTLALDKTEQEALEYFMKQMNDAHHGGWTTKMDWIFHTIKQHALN
Sequence of P110γ (P48736 whole entry): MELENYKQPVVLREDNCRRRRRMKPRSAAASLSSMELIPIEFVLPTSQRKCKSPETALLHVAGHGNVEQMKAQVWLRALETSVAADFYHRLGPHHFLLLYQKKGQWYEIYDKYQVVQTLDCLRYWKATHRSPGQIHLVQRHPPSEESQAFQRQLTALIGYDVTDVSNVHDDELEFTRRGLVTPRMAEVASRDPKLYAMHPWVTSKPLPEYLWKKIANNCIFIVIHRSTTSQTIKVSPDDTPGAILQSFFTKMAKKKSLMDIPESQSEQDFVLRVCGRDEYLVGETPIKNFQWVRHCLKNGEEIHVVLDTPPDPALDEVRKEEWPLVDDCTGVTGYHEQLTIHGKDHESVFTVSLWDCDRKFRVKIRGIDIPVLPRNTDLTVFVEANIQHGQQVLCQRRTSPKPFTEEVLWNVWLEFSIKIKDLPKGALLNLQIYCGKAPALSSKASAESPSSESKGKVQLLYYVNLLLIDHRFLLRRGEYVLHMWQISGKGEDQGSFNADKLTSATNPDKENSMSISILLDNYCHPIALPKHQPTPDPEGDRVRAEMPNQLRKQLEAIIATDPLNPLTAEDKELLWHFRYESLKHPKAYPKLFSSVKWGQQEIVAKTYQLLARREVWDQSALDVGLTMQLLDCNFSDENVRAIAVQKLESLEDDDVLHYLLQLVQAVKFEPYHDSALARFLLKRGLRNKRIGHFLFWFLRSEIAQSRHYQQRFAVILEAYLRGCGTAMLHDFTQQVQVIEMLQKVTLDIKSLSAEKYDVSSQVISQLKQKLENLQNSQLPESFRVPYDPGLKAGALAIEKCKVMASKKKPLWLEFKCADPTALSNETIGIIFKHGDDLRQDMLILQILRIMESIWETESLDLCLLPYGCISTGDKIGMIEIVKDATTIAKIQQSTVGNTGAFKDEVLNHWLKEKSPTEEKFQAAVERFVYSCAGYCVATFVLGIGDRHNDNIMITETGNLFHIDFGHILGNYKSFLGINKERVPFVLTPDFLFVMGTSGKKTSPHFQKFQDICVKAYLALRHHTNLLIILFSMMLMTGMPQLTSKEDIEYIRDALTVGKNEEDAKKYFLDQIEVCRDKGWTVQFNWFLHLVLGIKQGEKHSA
Sequence of PI3K-C2β (O00750 whole entry): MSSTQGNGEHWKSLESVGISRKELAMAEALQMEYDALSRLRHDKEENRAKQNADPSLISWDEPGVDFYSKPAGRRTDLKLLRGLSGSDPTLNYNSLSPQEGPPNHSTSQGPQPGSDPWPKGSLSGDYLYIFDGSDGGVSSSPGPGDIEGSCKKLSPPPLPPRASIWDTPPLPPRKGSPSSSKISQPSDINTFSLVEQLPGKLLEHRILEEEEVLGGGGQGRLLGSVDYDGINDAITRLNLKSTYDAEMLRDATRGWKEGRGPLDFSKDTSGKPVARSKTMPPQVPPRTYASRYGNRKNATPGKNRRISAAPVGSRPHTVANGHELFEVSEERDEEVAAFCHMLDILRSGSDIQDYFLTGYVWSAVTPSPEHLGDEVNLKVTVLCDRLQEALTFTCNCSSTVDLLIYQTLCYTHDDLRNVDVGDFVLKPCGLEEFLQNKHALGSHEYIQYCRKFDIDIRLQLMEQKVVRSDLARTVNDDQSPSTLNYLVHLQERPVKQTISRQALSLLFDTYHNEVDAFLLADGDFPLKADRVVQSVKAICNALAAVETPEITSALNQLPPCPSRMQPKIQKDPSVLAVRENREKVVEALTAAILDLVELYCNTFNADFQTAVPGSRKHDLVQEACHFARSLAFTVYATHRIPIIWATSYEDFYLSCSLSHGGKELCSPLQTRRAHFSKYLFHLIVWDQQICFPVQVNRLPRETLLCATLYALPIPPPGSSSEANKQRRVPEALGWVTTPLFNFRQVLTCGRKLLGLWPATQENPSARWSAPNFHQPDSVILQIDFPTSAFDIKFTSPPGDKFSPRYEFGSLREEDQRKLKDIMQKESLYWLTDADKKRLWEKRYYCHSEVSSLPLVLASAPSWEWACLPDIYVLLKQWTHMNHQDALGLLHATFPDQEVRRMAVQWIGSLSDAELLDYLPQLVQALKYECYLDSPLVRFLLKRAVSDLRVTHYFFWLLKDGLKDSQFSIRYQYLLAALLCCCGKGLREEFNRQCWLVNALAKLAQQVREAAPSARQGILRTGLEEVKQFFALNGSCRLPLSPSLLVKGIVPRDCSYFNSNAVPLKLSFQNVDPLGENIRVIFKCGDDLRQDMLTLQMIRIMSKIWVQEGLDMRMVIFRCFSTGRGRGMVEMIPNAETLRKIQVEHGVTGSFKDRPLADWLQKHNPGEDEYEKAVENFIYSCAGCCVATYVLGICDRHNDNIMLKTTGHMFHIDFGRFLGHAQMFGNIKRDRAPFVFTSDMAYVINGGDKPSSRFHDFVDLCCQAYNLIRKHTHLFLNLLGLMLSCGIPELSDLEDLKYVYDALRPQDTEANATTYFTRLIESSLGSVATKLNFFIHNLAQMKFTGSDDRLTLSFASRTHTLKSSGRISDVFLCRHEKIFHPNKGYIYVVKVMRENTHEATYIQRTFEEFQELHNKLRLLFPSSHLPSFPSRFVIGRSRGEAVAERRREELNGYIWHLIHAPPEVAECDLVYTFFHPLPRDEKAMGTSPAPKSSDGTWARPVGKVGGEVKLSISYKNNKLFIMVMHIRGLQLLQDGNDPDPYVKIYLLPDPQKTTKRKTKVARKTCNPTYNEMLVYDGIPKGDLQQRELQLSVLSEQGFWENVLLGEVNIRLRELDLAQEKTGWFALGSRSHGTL

On to `Cc1cc(-n2c(=O)ccc3cnc4ccc(-c5cnc6ccccc6c5)cc4c32)ccc1-c1ccc(C(=O)NC2CCN(C)CC2)cc1` [Compound 19], for which, on CYP2D6, the inhibition at 10 µM is 24%.
As to `CCC(=O)N1CCN(c2ccc(-n3c(=O)ccc4cnc5ccc(-c6cnc7ccccc7c6)cc5c43)cc2C(F)(F)F)CC1` [Torin1], the protein kinase off-targets result in the data set on 450 kinases is on record as “no other significant protein kinase off-targets”. Besides, the anti-tumor activity result in the data set with U87-MG mouse xenograft is “exhibited anti-tumor activity”.
As to `CN1CCC(NC(=O)c2ccc(-c3ccc(-n4c(=O)ccc5cnc6ccc(-c7cnc8ccccc8c7)cc6c54)cc3C(F)(F)F)cc2)CC1` [Compound 10], the Ambit score stood at 0% on mTOR; 0.65% on PI3K-C2β; 0.05% on P110γ; 0.1% at P110α/P85α; 2% on P110δ/P85α. Besides, the inhibition at 10 µM was more than 60% at CYP3A4 and more than 50% against CYP2D6. Further, the “blocked phosphorylation of S6K (T389)” value in data set [1] is 80–90%. Also, the “blocked phosphorylation of pAkt (S473)” value in [1] is reported as 80–90%. This compound returned a CYP2D6 % inhibition on CYP2D6 (10 µM) of 51%.

The inhibition is the percentage by which the read-out fell short of the control. A lower inhibition goes with a weak effect.
